Results as given in US20070128217A1 (priority 2003, published 2007).

Tests used:
[1] = test system: recombinant human anti-SARS-CoV antibody 03-018; assay type: binding; parameters: Binding of antibody 03-018 to linear peptides of the N protein of SARS-CoV Urbani / Binding of antibody 03-018 to looped/cyclic peptides of the N protein of SARS-CoV Urbani: unit not given here
[2] = test system: antibodies in sera from SARS patients (sera 1a, 1b, 2, 6, 37, 62, London, SARS-yellow, SARS-green); assay type: binding, human; parameters: Binding of serum 6 to linear peptides of protein X1 of SARS-CoV Urbani / Binding of serum 37 to linear peptides of protein X1 of SARS-CoV Urbani / Binding of serum 6 to looped/cyclic peptide (PEPSCAN-ELISA) / Binding of serum 37 to looped/cyclic peptide (PEPSCAN-ELISA) / Binding of serum 37 to looped/cyclic peptides of protein X1 of SARS-CoV Urbani / Binding of serum 6 to linear peptides of protein X2 / Binding of serum 37 to linear peptides of protein X2 / Binding of serum 37 to looped/cyclic peptides of protein X2 of SARS-CoV Urbani / Binding of serum 6 to linear peptides of protein M of SARS-CoV Urbani / Binding of serum 37 to linear peptides of protein M of SARS-CoV Urbani / Binding of serum 6 to looped/cyclic peptides of protein M of SARS-CoV Urbani / Binding of serum 37 to looped/cyclic peptides of protein M of SARS-CoV Urbani / Binding of serum 6 to linear peptides of protein X3 of SARS-CoV Urbani / Binding of serum 37 to linear peptides of protein X3 of SARS-CoV Urbani / Binding of serum 37 to looped/cyclic peptides of protein X3 of SARS-CoV Urbani / Binding of serum 6 to linear peptides of protein X4 of SARS-CoV Urbani / Binding of serum 37 to linear peptides of protein X4 of SARS-CoV Urbani / Binding of serum 37 to looped/cyclic peptides of protein X4 of SARS-CoV Urbani / Binding of serum 6 to linear peptides of protein X5 of SARS-CoV Urbani / Binding of serum 37 to linear peptides of protein X5 of SARS-CoV Urbani / Binding of serum 37 to looped/cyclic peptides of protein X5 of SARS-CoV Urbani / Binding of serum 6 to linear peptides of protein N of SARS-CoV Urbani / Binding of serum 37 to linear peptides of protein N of SARS-CoV Urbani / Binding of serum 6 to linear peptide (PEPSCAN-ELISA) / Binding of serum 1a to looped/cyclic peptides of protein N of SARS-CoV Urbani / Binding of serum 1b to looped/cyclic peptides of protein N of SARS-CoV Urbani / Binding of serum 2 to looped/cyclic peptides of protein N of SARS-CoV Urbani / Binding of serum 6 to looped/cyclic peptides of protein N of SARS-CoV Urbani / Binding of serum 37 to looped/cyclic peptides of protein N of SARS-CoV Urbani / Binding of serum 62 to looped/cyclic peptides of protein N of SARS-CoV Urbani / Binding of serum London to looped/cyclic peptides of protein N of SARS-CoV Urbani / Binding of serum SARS-green to looped/cyclic peptides of protein N of SARS-CoV Urbani: unit not given here
[3] = test system: control sera (pooled serum of ten healthy LUMC hospital workers; commercial negative donor pooled serum from the Dutch bloodbank); assay type: binding, human; parameters: Binding of Control serum LUMC to linear peptides / Binding of Control serum Blood-bank to linear peptides / Binding of Control serum LUMC to looped peptides / Binding of Control Serum Blood-Bank to Looped peptides / Binding of Control serum LUMC to linear peptides of the protein M of SARS-CoV Urbani / Binding of Control serum Blood-bank to linear peptides of the protein M of SARS-CoV Urbani / Binding of Control serum LUMC to looped peptides of the protein M of SARS-CoV Urbani / Binding of Control Serum Blood-Bank to Looped peptides of the protein M of SARS-CoV Urbani: unit not given here
[4] = test system: rabbit serum obtained by immunizing a rabbit with the SARS-CoV strain Frankfurt 1; assay type: binding; parameters: Binding of a rabbit serum to linear peptides / Binding of a rabbit serum to looped peptides / Rabbit serum linear peptides / Rabbit serum looped peptides / Binding of a rabbit serum to linear peptides of protein N of SARS-CoV Urbani (Rabbit serum linear peptides) / Binding of a rabbit serum to looped/cyclic peptides of protein N of SARS-CoV Urbani (Rabbit serum looped peptides): unit not given here

Row | Sequence | Binding of antibody 03-018 to linear peptides of the N protein of SARS-CoV Urbani [1] | Binding of antibody 03-018 to looped/cyclic peptides of the N protein of SARS-CoV Urbani [1] | Binding of serum 1a to linear peptides of protein N of SARS-CoV Urbani [2] | Binding of serum 1a to looped/cyclic peptides of protein N of SARS-CoV Urbani [2] | Binding of serum 1b to linear peptides of protein N of SARS-CoV Urbani [2] | Binding of serum 1b to looped/cyclic peptides of protein N of SARS-CoV Urbani [2] | Binding of serum 2 to linear peptides of protein N of SARS-CoV Urbani [2] | Binding of serum 2 to looped/cyclic peptides of protein N of SARS-CoV Urbani [2] | Binding of serum 6 to linear peptides of protein N of SARS-CoV Urbani [2] | Binding of serum 6 to looped/cyclic peptides of protein N of SARS-CoV Urbani [2] | Binding of serum 37 to linear peptides of protein N of SARS-CoV Urbani [2] | Binding of serum 37 to looped/cyclic peptides of protein N of SARS-CoV Urbani [2] | Binding of serum 62 to linear peptides of protein N of SARS-CoV Urbani [2] | Binding of serum 62 to looped/cyclic peptides of protein N of SARS-CoV Urbani [2] | Binding of serum London to linear peptides of protein N of SARS-CoV Urbani [2] | Binding of serum London to looped/cyclic peptides of protein N of SARS-CoV Urbani [2] | Binding of serum SARS-green to linear peptides of protein N of SARS-CoV Urbani [2] | Binding of serum SARS-green to looped/cyclic peptides of protein N of SARS-CoV Urbani [2] | Binding of serum SARS-yellow to linear peptides of protein N of SARS-CoV Urbani [2] | Binding of serum SARS-yellow to looped/cyclic peptides of protein N of SARS-CoV Urbani [2] | also measured
1 | TEPKKDKKKKTDEAQ | 0.1 | 0.2 | 0.2 | 0.2 | 0.1 | 0.1 | 2.5 | 1.9 | 0.2 | 0.1 | 0.7 | 0.4 | 0.7 | 0.3 | 0.6 | 0.3 | 0.5 | 0.0 | 0.6 | 0.2 | Control Serum Blood-Bank Looped peptides [3]: 0.5; Control serum Blood-bank linear peptides [3]: 0.7; Control serum LUMC linear peptides [3]: 0.8; Control serum LUMC looped peptides [3]: 0.4; Binding of a rabbit serum to linear peptides of protein N of SARS-CoV Urbani (Rabbit serum linear peptides) [4]: 0.2; Binding of a rabbit serum to looped/cyclic peptides of protein N of SARS-CoV Urbani (Rabbit serum looped peptides) [4]: 0.3
2 | TGPEASLPYGANKEG | 0.1 | 0.2 | 0.3 | 0.3 | 0.2 | 0.2 | 0.3 | 0.5 | 0.3 | 0.4 | 0.7 | 0.6 | 0.9 | 0.5 | 0.7 | 0.6 | 0.8 | 0.7 | 0.6 | 0.4 | Binding of Control Serum Blood-Bank to Looped peptides [3]: 0.8; Binding of Control serum Blood-bank to linear peptides [3]: 0.9; Binding of Control serum LUMC to linear peptides [3]: 1.1; Binding of Control serum LUMC to looped peptides [3]: 0.6; Binding of a rabbit serum to linear peptides of protein N of SARS-CoV Urbani (Rabbit serum linear peptides) [4]: 0.1; Binding of a rabbit serum to looped/cyclic peptides of protein N of SARS-CoV Urbani (Rabbit serum looped peptides) [4]: 0.5
3 | TKQYNVTQAFGRRGP | 0.1 | 0.3 | – | 0.4 | – | 0.2 | – | 0.5 | – | 0.3 | – | 0.7 | – | 0.7 | – | 0.5 | – | 0.4 | – | 0.6 | Binding of serum 1a to linear peptide (PEPSCAN-ELISA) [2]: 0.3; Binding of serum 1b to linear peptide (PEPSCAN-ELISA) [2]: 0.1; Binding of serum 2 to linear peptide (PEPSCAN-ELISA) [2]: 0.2; Binding of serum 6 to linear peptide (PEPSCAN-ELISA) [2]: 0.2; Binding of serum 37 to linear peptide (PEPSCAN-ELISA) [2]: 0.8; Binding of serum 62 to linear peptide (PEPSCAN-ELISA) [2]: 0.7; Binding of serum London to linear peptide (PEPSCAN-ELISA) [2]: 0.5; Binding of serum SARS-green to linear peptide (PEPSCAN-ELISA) [2]: 0.5; Binding of serum SARS-yellow to linear peptide (PEPSCAN-ELISA) [2]: 0.7; Binding of Control Serum Blood-Bank to Looped peptides [3]: 0.9; Binding of Control serum Blood-bank to linear peptides [3]: 0.8; Binding of Control serum LUMC to linear peptides [3]: 0.8; Binding of Control serum LUMC to looped peptides [3]: 0.9; Recognition of the peptide by the rabbit serum [4]: recognized
4 | TLLPAADMDDFSRQL | 0.1 | 0.1 | 0.3 | 0.4 | 0.2 | 0.2 | 0.2 | 0.5 | 0.4 | 0.1 | 1.0 | 0.4 | 0.7 | 0.1 | 0.6 | 0.2 | 0.7 | 0.0 | 0.7 | 0.4 | Control Serum Blood-Bank Looped peptides [3]: 0.5; Control serum Blood-bank linear peptides [3]: 0.7; Control serum LUMC linear peptides [3]: 0.8; Control serum LUMC looped peptides [3]: 0.4; Binding of a rabbit serum to linear peptides of protein N of SARS-CoV Urbani (Rabbit serum linear peptides) [4]: 0.1; Binding of a rabbit serum to looped/cyclic peptides of protein N of SARS-CoV Urbani (Rabbit serum looped peptides) [4]: 0.0
